Patent US10508120B2, “TYK2 inhibitors and uses thereof” (Nimbus Lakshmi, Inc., priority 2017, dated 2019)
Where two headings read alike, the source gives them in different places.

Assays:
[1] = biological target: human TYK2 (JH2domain-pseudokinase) (Homo sapiens (Human), UniProt P29597); assay: TYK2 JH2 Domain Binding Assay (KINOMEscan)
Outline: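 Kds, run in duplicate, came from Hill fits (slope fixed at −1) of an 11-point 3-fold dilution series starting at 30,000 nM. Bead-retained TYK2 JH2 (aa G556–D888)–NFkB DBD fusion, DNA-tagged and expressed in HEK293 cells, was read by qPCR after 1 h room-temperature binding in 0.9% DMSO.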

Tyk2 kinase domain (DH1) = Tyk2 kinase domain (DH1) (Homo sapiens (Human), UniProt P29597); assay: Tyk2 Radioactive Kinase Assay; assay type: biochemical; conditions: read-out: Tyk2 JH1% Inhibition @ 10 μM
Tyk2 kinase domain (DH1), sequence (P29597 897-1176): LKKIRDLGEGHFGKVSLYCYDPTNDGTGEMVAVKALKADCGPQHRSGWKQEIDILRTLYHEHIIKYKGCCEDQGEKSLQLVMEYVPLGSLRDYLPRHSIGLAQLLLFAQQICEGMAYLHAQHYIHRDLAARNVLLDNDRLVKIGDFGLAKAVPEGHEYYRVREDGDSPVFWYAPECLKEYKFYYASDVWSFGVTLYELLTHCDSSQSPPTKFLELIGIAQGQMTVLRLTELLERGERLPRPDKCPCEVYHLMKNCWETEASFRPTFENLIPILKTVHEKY
Outline: (§1)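 Single-point screen: 10 μM test compound, radioactive kinase read-out, percent inhibition reported for each kinase domain.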

JAK2 kinase domain (JH1) = JAK2 kinase domain (JH1) (Homo sapiens (Human), UniProt O60674); assay: JAK2 Radioactive Kinase Assay; assay type: biochemical; conditions: read-out: JAK2 JH1% Inhibition @ 10 μM
JAK2 kinase domain (JH1), sequence (O60674 849-1124): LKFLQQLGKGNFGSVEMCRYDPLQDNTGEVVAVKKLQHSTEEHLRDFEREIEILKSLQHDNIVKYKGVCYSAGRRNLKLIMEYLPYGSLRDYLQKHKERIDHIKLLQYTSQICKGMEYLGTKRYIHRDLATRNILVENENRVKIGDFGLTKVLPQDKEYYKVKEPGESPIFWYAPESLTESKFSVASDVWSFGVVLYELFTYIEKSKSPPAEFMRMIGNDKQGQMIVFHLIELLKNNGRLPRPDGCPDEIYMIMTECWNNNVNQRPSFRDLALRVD
Outline: as §1

human TYK2 (JH2domain-pseudokinase), sequence (P29597 556-888): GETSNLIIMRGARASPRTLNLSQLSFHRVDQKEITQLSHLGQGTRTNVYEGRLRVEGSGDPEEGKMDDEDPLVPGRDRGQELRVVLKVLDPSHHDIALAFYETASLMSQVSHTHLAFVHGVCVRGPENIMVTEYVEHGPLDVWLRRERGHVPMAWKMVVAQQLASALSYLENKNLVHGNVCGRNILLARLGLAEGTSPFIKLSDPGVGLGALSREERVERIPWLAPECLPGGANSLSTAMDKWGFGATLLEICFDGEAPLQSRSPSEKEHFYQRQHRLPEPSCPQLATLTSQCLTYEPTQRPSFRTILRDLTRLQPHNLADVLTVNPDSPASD

| SMILES | Kd [1] | inhibition at 10 µM (Tyk2 kinase domain (DH1); compound at 10 μM, ATP 10 μM) | inhibition at 10 µM (JAK2 kinase domain (JH1); compound at 10 μM, ATP 10 μM) | inhibition at 10 µM (Tyk2 kinase domain (DH1); 10 μM compound, 10 μM ATP) | inhibition at 10 µM (JAK2 kinase domain (JH1); 10 μM compound, 10 μM ATP) |
| --- | --- | --- | --- | --- | --- |
| CNc1cc(Nc2cccnc2OC(F)(F)F)nc2c(C(=O)NC3CC3)cnn12 [I-90] | 0.2 to 1 nM | < 50% | < 50% |  |  |
| CNc1cc(Nc2cc(C)nc(N3CCCC3=O)c2)nc2c(C(N)=O)cnn12 [I-54] | 1 to 10 nM | < 50% | < 50% |  |  |
| CNc1cc(-c2nn(CCN3CCCCC3)c3ncccc23)nc2c(C(=O)N[C@H]3C[C@H]3F)cnn12 [I-458] | 0.2 to 1 nM | < 50% | < 50% |  |  |
| CNc1cc(Nc2cccn(-c3ccc(C4CC4)nn3)c2=O)nc2c(C(=O)NC3CC3)cnn12 [I-241] | < 0.2 nM | < 50% | < 50% |  |  |
| CNc1cc(Nc2cccn([C@H]3CCC[C@@H]3OC)c2=O)nc2c(C(=O)N[C@@H]3C[C@@H]3F)cnn12 [I-442] | 0.2 to 1 nM | < 50% | < 50% |  |  |
| NC(=O)c1cnn2c(N)cc(Nc3cccn(C4CCN(CC(F)F)CC4)c3=O)nc12 [I-100] | 1 to 10 nM | < 50% | < 50% |  |  |
| CNc1cc(Nc2cc(F)cn([C@@H]3CCCOC3)c2=O)nc2c(C(=O)N[C@H]3C[C@H]3F)cnn12 [I-558] | < 0.2 nM | < 50% | < 50% |  |  |
| CNc1cc(-c2cn(CCN3CCOCC3)c3ncccc23)nc2c(C(=O)N[C@@H]3COC[C@@H]3O)cnn12 [I-855, N-((3R,4R)-4-hydroxytetrahydrofuran-3-yl)-7-(methylamino)-5-(1-(2-morpholinoethyl)-1H-pyrrolo[2,3-b]pyridin-3-yl)pyrazolo[1,5-a]pyrimidine-3-carboxamide] | 1 to 10 nM |  |  | < 50% | < 50% |
| Nc1cc(Nc2cccnc2OC(F)(F)F)nc2c(C(=O)NC3COC3)cnn12 [I-103, 7-amino-N-(oxetan-3-yl)-5-((2-(trifluoromethoxy)pyridin-3-yl)amino)pyrazolo[1,5-a]pyrimidine-3-carboxamide] | > 10 nM | < 50% | < 50% |  |  |
| CNc1cc(Nc2cc(C)cnc2OC)nc2c(C(=O)NCC(C)(C)CO)cnn12 [I-270] | 0.2 to 1 nM | < 50% | < 50% |  |  |
| CNc1cc(Nc2cc(Cl)cn(-c3cnn(C4CC4)c3C)c2=O)nc2c(C(=O)NC3CCC3)cnn12 [I-181] | 0.2 to 1 nM | < 50% | < 50% |  |  |
| CNc1cc(Nc2cccn([C@@H]3CCC[C@@H]3O)c2=O)nc2c(C(=O)NC3CC3)cnn12 [I-964] | 1 to 10 nM |  |  | < 50% | < 50% |
| CNc1cc(-c2cn(C(C)C)c3ncc(Cl)cc23)nc2c(C(=O)NC3CCC3)cnn12 [I-273, 5-(5-chloro-1-isopropyl-1H-pyrrolo[2,3-b]pyridin-3-yl)-N-cyclobutyl-7-(methylamino)pyrazolo[1,5-a]pyrimidine-3-carboamide] | 1 to 10 nM | < 50% | < 50% |  |  |
| CNc1cc(Nc2cc(Cl)cn(C3CCOCC3)c2=O)nc2c(C(=O)N[C@H]3CC[C@H]3O)cnn12 [I-1068] | < 0.2 nM |  |  | < 50% | < 50% |
| CNc1cc(Nc2cc(C)cnc2OC(C)C)nc2c(C(=O)NC3CCC3)cnn12 [I-213] | 1 to 10 nM | < 50% | < 50% |  |  |
| CNc1cc(-c2cn(C(C)C)c3ncccc23)nc2c(C(=O)NCC3(CO)CC3)cnn12 [I-587] | 0.2 to 1 nM | < 50% | < 50% |  |  |
| CNc1cc(Nc2cccn(CCOC)c2=O)nc2c(C(=O)NC3CC3)cnn12 [I-267] | < 0.2 nM | < 50% | < 50% |  |  |
| CNc1cc(Nc2cccn([C@@H]3CCCC[C@@H]3O)c2=O)nc2c(C(=O)NC3CC3)cnn12 [I-671] | < 0.2 nM | < 50% | < 50% |  |  |
| CNc1cc(Nc2cccn([C@@H]3CCCC[C@@H]3OC)c2=O)nc2c(C(=O)N[C@@H]3C[C@@H]3F)cnn12 [I-915] | 1 to 10 nM |  |  | < 50% | < 50% |
| CNc1cc(Nc2cccn([C@@H]3CCC[C@H](OC)C3)c2=O)nc2c(C(=O)N[C@H]3CC[C@@H]3OC)cnn12 [I-1083] | 1 to 10 nM |  |  | < 50% | < 50% |

| SMILES | Kd [1] | inhibition at 10 µM (Tyk2 kinase domain (DH1); compound at 10 μM, ATP 10 μM) | inhibition at 10 µM (JAK2 kinase domain (JH1); compound at 10 μM, ATP 10 μM) | inhibition at 10 µM (Tyk2 kinase domain (DH1); 10 μM compound, 10 μM ATP) | inhibition at 10 µM (JAK2 kinase domain (JH1); 10 μM compound, 10 μM ATP) |
| --- | --- | --- | --- | --- | --- |
| CNc1cc(Nc2cccnc2OC2CC2)nc2c(C(=O)N[C@H]3C[C@@H]3O)cnn12 [I-439, 5-((2-cyclopropoxypyridin-3-yl)amino)-N-((1S,2S)-2-hydroxycyclopropyl)-7-(methylamino)pyrazolo[1,5-a]pyrimidine-3-carboxamide] | 0.2 to 1 nM | < 50% | < 50% |  |  |
| CNc1cc(Nc2cccnc2OC2CC2)nc2c(C(=O)N[C@H]3CC[C@H](O)C3)cnn12 (stereo in doubt) [I-461, 5-((2-cyclopropoxypyridin-3-yl)amino)-N-(3-hydroxycyclopentyl)-7-(methylamino)pyrazolo[1,5-a]pyrimidine-3-carboxamide] | < 0.2 nM | < 50% | < 50% |  |  |
| CNc1cc(Nc2ccc3c(n2)OCCO3)nc2c(C(=O)N[C@H]3C[C@H]3F)cnn12 [I-532] | 0.2 to 1 nM | < 50% | < 50% |  |  |
| CNc1cc(Nc2cccn([C@@H]3CCCOC3)c2=O)nc2c(C(=O)N[C@H]3CC[C@H](O)C3)cnn12 (stereo in doubt) [I-702, N-(3-hydroxycyclopentyl)-7-(methylamino)-5-((2-oxo-1-((S)-tetrahydro-2H-pyran-3-yl)-1,2-dihydropyridin-3-yl)amino)pyrazolo[1,5-a]pyrimidine-3-carboxamide] | 0.2 to 1 nM | < 50% | < 50% |  |  |
| CNc1cc(Nc2cccn([C@H]3CCC[C@H](O)C3)c2=O)nc2c(C(=O)NC3CC3)cnn12 [I-760] | < 0.2 nM | < 50% | < 50% |  |  |
| CNc1cc(Nc2cc(Cl)cn(C3CCN(C)CC3)c2=O)nc2c(C(=O)N[C@H]3CC[C@@H]3O)cnn12 [I-931] | < 0.2 nM |  |  | < 50% | < 50% |
| CNc1cc(Nc2cccn(C3CCN(CCC#N)CC3)c2=O)nc2c(C(=O)N[C@H]3C[C@H]3F)cnn12 [I-628, -((1-(1-(2-cyanoethyl)piperidin-4-yl)-2-oxo-1,2-dihydropyridin-3-yl)amino)-N-((1R,2S)-2-fluorocyclopropyl)-7-(methylamino)pyrazolo[1,5-a]pyrimidine-3-carboxamide] | < 0.2 nM | < 50% | < 50% |  |  |
| CNc1cc(Nc2cccn([C@@H]3CCCOC3)c2=O)nc2c(C(=O)N[C@H]3CC[C@@H]3O)cnn12 [I-698] | < 0.2 nM | < 50% | < 50% |  |  |
| CNc1cc(Nc2cccc3ocnc23)nc2c(C(=O)N[C@H]3COC[C@H]3O)cnn12 [I-755] | < 0.2 nM | < 50% | < 50% |  |  |
| CNc1cc(Nc2cccn(C3CCOCC3)c2=O)nc2c(C(=O)N[C@@H]3CC[C@H]3O)cnn12 [I-597] | 0.2 to 1 nM | < 50% | < 50% |  |  |
| CNc1cc(Nc2cccn(-c3cnn(CC4CCOC4)c3)c2=O)nc2c(C(=O)NC3CC3)cnn12 (stereo not drawn) [I-444] | < 0.2 nM | < 50% | < 50% |  |  |
| CNc1cc(Nc2cccn([C@H]3CC[C@](C)(OC)CC3)c2=O)nc2c(C(=O)N[C@H]3CC[C@H]3O)cnn12 [I-723, N-((1R,2S)-2-hydroxycyclobutyl)-5-((1-((1R,4R)-4-methoxy-4-methylcyclohexyl)-2-oxo-1,2-dihydropyridin-3-yl)amino)-7-(methylamino)pyrazolo[1,5-a]pyrimidine-3-carboxamide] | 0.2 to 1 nM | < 50% | < 50% |  |  |
| NC(=O)c1cnn2c(N)cc(Nc3cc(Cl)cnc3OC3CCC3)nc12 [I-81] | 1 to 10 nM | < 50% | < 50% |  |  |
| CNc1cc(Nc2cccc(C3CCCCO3)n2)nc2c(C(=O)NC3CC3)cnn12 (stereo in doubt) [I-464, (S)—N-cyclopropyl-7-(methylamino)-5-((6-(tetrahydro-2H-pyran-2-yl)pyridin-2-yl)amino) pyrazolo[1,5-a]pyrimidine-3-carboxamide] | 0.2 to 1 nM | < 50% | < 50% |  |  |
| CNc1cc(Nc2cccn(-c3cnc(C(C)(C)O)cn3)c2=O)nc2c(C(N)=O)cnn12 [I-63] | < 0.2 nM | < 50% | < 50% |  |  |
| CNc1cc(Nc2cccnc2OC)nc2c(C(=O)NC[C@@H](C)CO)cnn12 [I-484] | < 0.2 nM | < 50% | < 50% |  |  |
| CNc1cc(-c2cn(CCN3CCN(C)CC3)c3ncccc23)nc2c(C(=O)N[C@H]3C[C@H]3F)cnn12 [I-617] | < 0.2 nM | < 50% | < 50% |  |  |
| CNC(=O)c1occc1Nc1cc(NC)n2ncc(C(=O)N[C@H]3CC[C@@H]3OC)c2n1 (stereo in doubt) [I-1111, N-(2-methoxycyclobutyl)-7-(methylamino)-5-((2-(methylcarbamoyl)furan-3-yl)amino)pyrazolo[1,5-a]pyrimidine-3-carboxamide] | < 0.2 nM |  |  | < 50% | < 50% |
| CNc1cc(Nc2cc(F)cn(C3CCN(C)CC3)c2=O)nc2c(C(=O)NC3CC3)cnn12 [I-625] | < 0.2 nM | < 50% | < 50% |  |  |
